Laboratory results taken from patent US6489337B1, “Method for treating histamine H3 receptor-mediated disorders with 2- or 3-aryl substituted imidazo[1,2-a] pyridines” (Ortho-McNeil Pharmaceutical, Inc., priority 2000, dated 2002).
pKi: −log10 of the molar value. Structures can show the parent of a compound that is named as a salt.

Target: T1, human histamine H3 receptor (Homo sapiens, UniProt Q9Y5N1)
T1 construct: expressed in transfected cells; membranes prepared from cell pellets
Test: [3H]-N-methylhistamine binding
Conditions: membranes of histamine H3 receptor-expressing SK-N-MC cells; 0.8 nM [3H]-N-methylhistamine; 45 minutes at 25° C.; KI=(IC50)/(1+([L]/(KD)), KD 800 pM
Protocol: In the present invention receptor binding was determined using the human histamine H3 receptor (See Lovenberg et al Mol. Pharmacol. 1999, 1107). Screening using the human receptor is particularly important for the identification of new therapies for the treatment of human disease. Conventional binding assays for example are determined using rat synaptosomes (Garbarg et al J. Pharmacol. Exp. Ther. 1992, 263, 304), rat cortical membranes (West et al Mol. Pharmacol. 1990, 610), and guinea pig brain (Korte et al Biochem. Biophys. Res. Commun. 1990, 978). Only limited studies have been performed previously using human tissue but these allude to significant differences in the pharmacology of rodent and primate receptors (West et al Eur. J. Pharmacol. 1999, 233).
A 10 cm tissue culture dish with a confluent monolayer of SK-N-MC cells was split two days prior to transfection. Using sterile technique the media was removed and the cells were detached from the dish by the addition of trypsin. One fifth of the cells were then placed onto a new 10 cm dish. Cells were grown in a 37° C. incubator with 5% CO2 in Minimal Essential Media Eagle with 10% Fetal Bovine Serum. After two days cells were approximately 80% confluent. These were removed from the dish with trypsin and pelleted in a clinical centrifuge. The pellet was then re-suspended in 400 μL complete media and transferred to an electroporation cuvette with a 0.4 cm gap between the electrodes (Bio-Rad #165-2088). One microgram supercoiled H3 receptor cDNA was added to the cells and mixed. The voltage for the electroporation was set at 0.25 kV, the capacitance is set at 960 μF.
After electroporation the cells were diluted into 10 mL complete media and plated onto four 10 cm dishes. Due to the variability in the efficiency of electroporation, four different concentrations of cells were plated. The ratios used were: 1:20, 1:10, and 1:5, with the remainder of the cells being added to the fourth dish. The cells were allowed to recover for 24 hours before adding the selection media (complete media with 600 μg/ml G418). After 10 days dishes were analyzed for surviving colonies of cells. Dishes with well-isolated colonies were used. Cells from individual colonies were isolated and tested. SK-N-MC cells were used because they give efficient coupling for inhibition of adenylate cyclase. The clones that gave the most robust inhibition of adenylate cyclase in response to histamine were used for further study.
1(B) [^3H]-N-methylhistamine Binding
Cell pellets from histamine H3 receptor-expressing SK-N-MC cells were homogenized in 20 mM TrisHCl/0.5 mM EDTA. Supernatants from a 800 g spin were collected, recentrifuged at 30,000 g for 30 minutes. Pellets were rehomogenized in 50 mM Tris/5 mM EDTA (pH 7.4). Membranes were incubated with 0.8 nM [^3H]-N-methylhistamine plus/minus test compounds for 45 minutes at 25° C. and harvested by rapid filtration over GF/C glass fiber filters (pretreated with 0.3% polyethylenimine) followed by four washes with ice cold buffer. Filters were dried, added to 4 mL scintillation cocktail and then counted on a liquid scintillation counter. Non-specific binding was defined with 10 μM histamine according to Chen and Prusoff, Biochem. Pharmacol. 1973, 22:3099. KI values were calculated based on a KD of 800 pM and a ligand concentration ([L]) of 800 pM according to the formula: KI=(IC50)/(1+([L]/(KD)). KI values are provided in the examples above.

T1 sequence (Q9Y5N1 whole entry): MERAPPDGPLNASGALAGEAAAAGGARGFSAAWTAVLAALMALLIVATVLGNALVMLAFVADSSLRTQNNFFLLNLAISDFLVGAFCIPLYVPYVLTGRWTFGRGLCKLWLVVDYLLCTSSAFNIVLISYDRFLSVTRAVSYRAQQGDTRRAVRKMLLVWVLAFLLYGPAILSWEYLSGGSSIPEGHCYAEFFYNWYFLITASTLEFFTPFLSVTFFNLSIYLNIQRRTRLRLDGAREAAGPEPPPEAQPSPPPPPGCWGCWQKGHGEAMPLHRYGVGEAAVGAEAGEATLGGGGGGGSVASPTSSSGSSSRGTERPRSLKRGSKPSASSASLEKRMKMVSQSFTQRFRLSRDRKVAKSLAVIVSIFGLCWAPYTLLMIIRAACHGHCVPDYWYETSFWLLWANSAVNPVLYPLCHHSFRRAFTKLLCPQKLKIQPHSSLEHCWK

Row | Structure (SMILES) | pKi
1 | CCCCN(CCCC)CCCOc1ccc(C(=O)c2cn3ccc(C)cc3n2)cc1 [Example 3, [4-(3-dibutylamino-propoxy)-phenyl]-(7-methyl-imidazo[1,2-a]pyridin-2-yl)-methanone] | 7.15
2 | CCCCN(CCCC)CCCOc1ccc(-c2nc3c(C)cccn3c2C)cc1 [Example 4, 2-(4-Dibutylaminopropoxyphenyl)-3,8-dimethylimidazo[1,2-a]pyridine] | 6.49
3 | CCCCN(CCCC)CCCOc1ccc(C(=O)c2cn3cccc(C)c3n2)cc1 [Example 5, 2-(4-Dibutylaminopropoxybenzoyl)-8-methylimidazo[1,2-a]pyridine] | 6.30
4 | Cc1cccn2cc(-c3ccc(OCCCN(C)C)cc3)nc12 [Example 8, 2-(4-Dimethylaminopropoxyphenyl)-8-methylimidazo[1,2-a]pyridine] | 7.85
5 | CN(C)CCCOc1ccc(-c2cn3ccccc3n2)cc1 [Example 9, 2-(4-Dimethylaminopropoxyphenyl)imidazo[1,2-a]pyridine] | 6.92
6 | CCN(CC)CCOc1ccc(-c2cn3cccc(C)c3n2)cc1 [Example 10, 2-(4-Diethylaminoethoxyphenyl)-8-methylimidazo[1,2-a]pyridine] | 7.82
7 | Cc1cccn2cc(-c3ccc(OCCN(C(C)C)C(C)C)cc3)nc12 [Example 11, 2-(4-Diisopropylaminoethoxyphenyl)-8-methylimidazo[1,2-a]pyridine] | 7.26
8 | CCCN(CCC)CCCOc1ccc(-c2cn3cccc(C)c3n2)cc1C [Example 14, 2-(4-Dipropylaminopropoxy-(3-methyl)-phenyl)-8-methylimidazo[1,2-a]pyridine] | 7.85

Next, values leading:

Row | pKi | Structure (SMILES)
9 | 6.30 | CCCCN(CCCC)CCCOc1ccc(-c2cn3cccc(C)c3n2)cc1 [Example 2, 2-[4-[3-(Dibutylamino)propoxy]phenyl)-8-methylimidazo[1,2-a]pyridine]
10 | 7.36 | CCCN(CCC)CCCOc1ccc(-c2cn3cccc(C)c3n2)cc1 [Example 7, 2-(4-Dipropylaminopropoxyphenyl)-8-methylimidazo[1,2-a]pyridine]
11 | 6.30 | CCCCCN(CCCCC)CCCOc1ccc(-c2cn3cccc(C)c3n2)cc1 [Example 13, 2-(4-Dipentylaminopropoxyphenyl)-8-methylimidazo[1,2-a]pyridine]

System: not given
Test: not given
Conditions: not given

Row | melting point [°C] | Structure (SMILES)
12 | 179 to 183 | CCCCN(CCCC)CCCOc1ccc(-c2cn3ccccc3n2)cc1 (as salt: HCl) [Example 1, 2-(4-Dibutylaminopropoxyphenyl)imidazo[1,2-a]pyridine]
13 | 214 to 217 | CCCCN(CCCC)CCCOc1ccc(-c2cn3cccc(C)c3n2)cc1 (as salt: HCl) [Example 2, 2-[4-[3-(Dibutylamino)propoxy]phenyl)-8-methylimidazo[1,2-a]pyridine]
14 | 202 to 204 | CCCCN(CCCC)CCCOc1ccc(-c2nc3c(C)cccn3c2C)cc1 (as salt: HCl) [Example 4, 2-(4-Dibutylaminopropoxyphenyl)-3,8-dimethylimidazo[1,2-a]pyridine]
15 | 159 to 161 | CCCCN(CCCC)CCCOc1ccc(C(=O)c2cn3cccc(C)c3n2)cc1 (as salt: HCl) [Example 5, 2-(4-Dibutylaminopropoxybenzoyl)-8-methylimidazo[1,2-a]pyridine]
